Data from patent publication US20050090529A1, “3,5 Disubstituted indazole compounds with nitrogen-bearing 5-membered heterocycles, pharmaceutical compositions, and methods for mediating or inhibiting cell proliferation” (PFIZER INC, priority 2003, published 2005).
Converted amounts (≈) assume the structure as drawn.

Tests used:
[1] = molecular target: T1, CDK2/Cyclin A (Homo sapiens, UniProt P24941); test: Inhibition of CDK2/Cyclin A retinoblastoma kinase activity (apparent Ki); assay type: biochemical; settings: read-out: CDK2 Ki
T1 construct: made in house; host or cells: CDK2: insect cells (baculovirus); cyclin A: E. coli
How it was run: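 Cyclin A complex (proteolyzed cyclin) purified by gel filtration; enzyme-initiated reactions ran 20 min at 30 °C, transferring radiolabelled phosphate from [32P]/[33P]ATP onto a protein substrate, stopped with EDTA and quantified by phosphorimager.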

[2] = Measurement of kinetic solubility; settings: 100 mM sodium phosphate buffer, pH 6.5, aqueous buffer, kinetic from dmso stock
Description: Kinetic solubility was determined with a […] stock solution from the compound(s) of interest. […] Samples and standards were then centrifuged and an aliquot was removed for HPLC analysis. Samples and standards were analyzed by HPLC and a final concentration for the sample was determined based on a one-point calibration curve from the corresponding standard. Results were reported as μg's/mL.

Ki [1] [nM] | solubility [2] [µg/mL] | SMILES
< 50 | 20 to 120 (≈ 66.6 to 400 µM) | c1ncc(-c2n[nH]c3ccc(-c4cncc5[nH]ccc45)cc23)[nH]1 [Example 95, 3-(3H-Imidazol-4-yl)-5-(1H-pyrrolo[2,3-c]pyridin-4-yl)-1H-indazole]
50 to 200 | > 120 | CCNCc1cncc(-c2ccc3[nH]nc(-c4cnc(-c5ccncc5)[nH]4)c3c2)c1C [Example 96, Ethyl-{4-methyl-5-[3-(2-pyridin-4-yl-3H-imidazol-4-yl)-1H-indazol-5-yl]-pyridin-3-ylmethyl}-amine]
50 to 200 | > 120 | CCNCc1cncc(-c2ccc3[nH]nc(C(N)=O)c3c2)c1C [Example 97, 5-(5-Ethylaminomethyl-4-methyl-pyridin-3-yl)-1H-indazole-3-carboxylic acid amide]
